These results are taken from publication PMC12223813, “Antiproliferative and Trypanocidal Activity of Ivermectin Bioconjugates” (ACS Omega, 2025).

Data set [1] concerns bloodstream forms of T. b. brucei (427-221a clone). In words: microbe, parasite or virus in culture. To be noted: for selectivity GI50 ratio: GI50(HL-60)/GI50(T. brucei); for GI50: Trypanosoma brucei, 72 h, read-out: T. brucei GI50, bloodstream forms, 72 h total (24 h + 48 h with resazurin), mean ± SD of three independent experiments. The method, then:
(§1) The trypanocidal and cytotoxic activities of the newly synthesized IVR bioconjugates and their conjugation partners were determined for bloodstream forms of T. brucei brucei and human myeloid HL-60 cells in vitro using the resazurin cell viability assay as previously described.
(§2) Test compounds were assayed at 10-fold dilutions ranging from 100 μM to 1 nM in the presence of 0.9% DMSO. Controls were grown in the culture medium containing only 0.9% DMSO. The assays were cultured in an incubator at 37 °C in a humidified atmosphere containing 5% CO2. After 24 h incubation, 20 μL of 0.5 mM resazurin (prepared in sterile PBS) was added, and the cultures were grown for another 48 h. Then, the proliferation of the cells was determined by measuring the absorbance at 570 nm (test wavelength) and 630 nm (reference wavelength) using a microplate reader.

In data set [2] the test system is human promyelocytic leukemia HL-60 cells. Description: Cytotoxic activity, resazurin cell viability assay. Type of data set: cell-based. To be noted: 72 h total (24 h + 48 h with resazurin), mean ± SD of three independent experiments. Here is the method:
as §1, §2
In general terms: Alamar Blue is a resazurin reagent that responds to reducing activity.

Data set [3] has as its system A549, human lung cancer cell line. In words: Antiproliferative activity, MTT assay. Type of data set: cell-based. To be noted: for IC50: Homo sapiens, A549, 72 h, MTT, mean ± SD; for A549 SI: SI = IC50 HaCaT/IC50 A549. Here is the method: (§3) Additionally, to assess the selectivity of these compounds toward cancer cells, we included an immortalized keratinocyte cell line from adult human skin (HaCaT) in the antiproliferative activity tests. Doxorubicin served as the reference anticancer drug.
(§4) The culture media were enriched with 10% fetal bovine serum (FBS, Sigma-Aldrich, St. Louis, MO, USA), 20 mM HEPES (Biowest, Nuaillé, France), and antibiotics (100 U/mL penicillin and 100 μg/mL streptomycin) obtained from Gibco (Grand Island, NY, USA). The cells were maintained in a humidified incubator at 37 °C with 5% CO2 until they reached 80–90% confluence, after which they were used for further experiments.
(§5) To assess the cytotoxicity, the cells (0.5 × 10^4/well) were plated in 96-well plates and allowed to adhere for 24 h. The MTT (3-(4,5-dimethylthiazol-2-yl)-2,5-diphenyltetrazolium bromide) assay was used to evaluate the cytotoxic effects of IVR bioconjugates on all tested cell lines. After 24 h incubation, cells were exposed to varying concentrations (1 to 100 μM) of the test compounds for 72 h. Following the treatment, the medium was discarded, and a 0.5 mg mL^–1 MTT solution was added to each well and incubation was continued for another 4 h. Mitochondrial enzyme activity facilitated the formation of formazan crystals, which were subsequently dissolved in DMSO-isopropanol (1:1, v/v), producing a violet-colored solution. A 100 μL aliquot of this solution was transferred to the well, and absorbance was recorded at 570 nm using a MultiscanGo spectrophotometer (ThermoFisher Scientific, Carlsbad, CA, USA).
(§6) Cytotoxicity was quantified by comparing the absorbance of the treated cells to that of untreated controls using the formula: [A]/[B] × 100, where [A] represents the absorbance of the treated sample and [B] corresponds to the absorbance of the control sample. A decrease in MTT levels reflects a decrease in cell viability.
On the technique in general: Tetrazolium assays rely on reduction of a dye to a coloured formazan, in cell work by metabolically active cells.

The subject of data set [4] is HCT-116, human primary colon cancer cell line. Description: Antiproliferative activity, MTT assay. Type of data set: cell-based. As to conditions: for IC50: Homo sapiens, HCT-116, 72 h, MTT, mean ± SD; for HCT-116 SI: SI = IC50 HaCaT/IC50 HCT-116. The method, then: as §3, §4, §5, §6
Data set [5] deals with MDA-MB-231, human triple-negative breast cancer cell line. In words: Antiproliferative activity, MTT assay. Type of data set: cell-based. To be noted: for IC50: Homo sapiens, MDA-MB-231, 72 h, MTT, mean ± SD; for MDA-MB-231 SI: SI = IC50 HaCaT/IC50 MDA-MB-231. Here is the method:
as §3, §4, §5, §6

Data set [6] has as its system PC3, human metastatic prostate cancer cell line. In words: Antiproliferative activity, MTT assay. To be noted: for IC50: Homo sapiens, 72 h, MTT, mean ± SD; for PC3 SI: SI = IC50 HaCaT/IC50 PC3. Format: cell-based. Here is the method: as §3, §4, §5, §6
In data set [7] the test system is HaCaT, human immortalized keratinocyte cell line. In words: Cytotoxicity toward normal cells, MTT assay. Format: cell-based. To be noted: 72 h, mean ± SD. The method, then: as §3, §4, §5, §6
Data set [8] is described as follows: in vitro. As to conditions: human. Here is the method:
as §1, §2

Bounds are passed on as bounds.

In the case of `CCC(C)C1OC2(CCC1C)CC1CC(CC=C(C)C(OC(=O)OCC3OC(n4cc(C)c(=O)[nH]c4=O)CC3N=[N+]=[N-])C(C)C=CC=C3COC4C(O)C(C)=CC(C(=O)O1)C34O)O2` (centres unmarked) [compound 11, Ivermectin–Azidothymidine Conjugate], the “selectivity GI50 ratio” value in data set [1] was found to be 5.6. The GI50 – broadly, the concentration at which growth is held to half of that of the control – in data set [2] turned out to be 11.1 ± 4.1 µM. Besides, the IC50 – broadly, the concentration needed to halve the response being measured – worked out at 8.2 ± 1.9 µM in data set [3]; 7.7 ± 3.1 µM in data set [4]; 12.5 ± 1.5 µM in data set [5]; 8.1 ± 3.2 µM in data set [6]; 26.1 ± 3.3 µM in data set [7]. Moreover, the “A549 SI” value in data set [3] was 3.2. Besides, the “HCT-116 SI” value in data set [4] is given as 3.4. In data set [5], the “MDA-MB-231 SI” value turned out to be 2.1. Also, the “PC3 SI” value in data set [6] is recorded as 3.2.
Take `C=C(C)C1CCC2(C(=O)OCc3cn(CC(=O)OC4C(C)=CCC5CC(CC6(CCC(C)C(C(C)CC)O6)O5)OC(=O)C5C=C(C)C(O)C6OCC(=CC=CC4C)C56O)nn3)CCC3(C)C(CCC4C5(C)CCC(O)C(C)(C)C5CCC43C)C12` (centres unmarked) [compound 15, Ivermectin–Betulinic Acid Conjugate]: in data set [1], the “selectivity GI50 ratio” value is over 4.6 and the GI50 was determined as 21.9 ± 2.1 µM. The 50% growth inhibitory concentration (GI50) in data set [2] was over 100 µM. In addition, in data set [3], the IC50 is over 100 µM and the “A549 SI” value is reported as “∼1.0”. Also, in data set [4], the IC50 came to 70.1 ± 6.4 µM and the “HCT-116 SI” value was over 1.4. In data set [5], the IC50 was over 100 µM and the “MDA-MB-231 SI” value is “∼1.0”. Further, in data set [6], the half-maximal inhibitory concentration (IC50) is 93.9 ± 6.4 µM and the “PC3 SI” value is over 1.1. Further, the 50% inhibitory concentration (IC50) in data set [7] was over 100 µM.
As for `CCC(C)C1OC2(CCC1C)CC1CC(CC=C(C)C(OC(=O)Cn3cc(COC(=O)CCC(=O)OC4OC5OC6(C)CCC7C(C)CCC(C4C)C57OO6)nn3)C(C)C=CC=C3COC4C(O)C(C)=CC(C(=O)O1)C34O)O2` (centres unmarked) [compound 16, Ivermectin–Artesunate Conjugate], the selectivity ratio in data set [8] is over 256. In data set [1], the “selectivity GI50 ratio” value was 46.2. Moreover, the “antitrypanosomal activity, times stronger than IVR” value in data set [1] (relative to IVR GI50) was 7 times. For the same molecule, the “antitrypanosomal activity, times stronger than artesunate” value in data set [1] (relative to artesunate GI50) is 9 times. Also, the concentration for 50% growth inhibition (GI50) in data set [2] stood at 18 ± 6 µM. In data set [3], the IC50 came to 3.8 ± 1.3 µM and the “A549 SI” value is listed as over 26.3. In addition, in data set [4], the IC50 was 4.5 ± 0.6 µM and the “HCT-116 SI” value is given as over 22.2. In addition, in data set [5], inhibition was half-maximal at 13 ± 4.1 µM (IC50) and the “MDA-MB-231 SI” value is over 7.7. In data set [6], 20.8 ± 7.2 µM corresponded to half-maximal inhibition (IC50) and the “PC3 SI” value is listed as over 4.8. In data set [7], this molecule returned an IC50 of over 100 µM.
`O=c1[nH]c(=O)n([C@H]2C[C@H](O)[C@@H](CO)O2)cc1F` [floxuridine, reference compound]: the “selectivity GI50 ratio” value in data set [1] is listed as over 45.5. For the same molecule, the GI50 in data set [1] is 2.2 ± 0.4 µM; in data set [2], over 100 µM. Besides, the IC50 in data set [3] came to 26.4 ± 3.8 µM; in data set [4], 11.7 ± 4.2 µM; in data set [5], 22.2 ± 3.4 µM; in data set [6], 15.7 ± 3.3 µM; in data set [7], 24.3 ± 7.3 µM. Further, in data set [3], the “A549 SI” value stood at 0.9. Further, in data set [4], the “HCT-116 SI” value turned out to be 2.1. Also, the “MDA-MB-231 SI” value in data set [5] was determined as 1.1. The “PC3 SI” value in data set [6] is 1.5.
For `Cc1ncc([N+](=O)[O-])n1CCO` [metronidazole, reference compound], the “selectivity GI50 ratio” value in data set [1] was “∼1.0”. In addition, the GI50 in data set [2] is over 100 µM. Moreover, the IC50 in data set [3] is over 100 µM; in data set [4], over 100 µM; in data set [5] it was 14.9 ± 3.9 µM; in data set [6] it was 57 ± 6.1 µM; in data set [7], over 100 µM. Also, the “A549 SI” value in data set [3] is listed as “∼1.0”. In addition, the “HCT-116 SI” value in data set [4] is reported as “∼1.0”. Further, the “MDA-MB-231 SI” value in data set [5] was over 6.7. For the same molecule, in data set [6], the “PC3 SI” value is recorded as over 1.8.
Regarding `C=C[C@H]1C[N@@]2CC[C@H]1C[C@@H]2[C@@H](O)c1ccnc2ccc(OC)cc12` [quinidine, reference compound], the 50% growth inhibitory concentration (GI50) was 0.32 ± 0.04 µM in data set [1] and over 100 µM in data set [2]. The IC50 in data set [3] is 55.8 ± 5.3 µM; in data set [4], 67.4 ± 8.9 µM; in data set [5], 76.2 ± 4.6 µM; in data set [6], 86.1 ± 1.2 µM; in data set [7] it was over 100 µM.
On to `C=C[C@H]1C[N@@]2CC[C@H]1C[C@H]2[C@H](O)c1ccnc2ccc(OC)cc12` [quinine, reference compound], for which the GI50 was 1.1 ± 0.3 µM in data set [1] and over 100 µM in data set [2]. Further, the concentration for half-maximal inhibition (IC50) in data set [3] was 56.4 ± 3.2 µM; in data set [4], 32.8 ± 3.8 µM; in data set [5], 54.4 ± 7 µM; in data set [6], 56.3 ± 7.2 µM; in data set [7] it was over 100 µM.
